Values quoted from earlier work as cited in US11458150B2 (priority 2019, dated 2022).

Tested on: pellagra patients
Settings: in vivo

Q: Which results are given for `O=C(O)c1cccnc1` [nicotinic acid]?
A: effect on symptoms of pellagra: disappearance of many symptoms of the disease; time to blanching of acute erythematous dermal lesions with intact epithelium: ≤ 48 h
